The text below walks through data of patent US4812462A, “4,5,6,7-tetrahydro-1H-imidazo[4,5-c]pyridine-6-carboxylic acid analogs having antihypertensive activity” (Warner-Lambert Company, priority 1986, dated 1989).

Experiment [1] relates to 2 kidney, 1-clip Goldblatt hypertensive rat (RHR). Kind of experiment: blood pressure lowering in conscious 2 kidney, 1-clip Goldblatt (renal) hypertensive rats (RHR), AHP3. Type of experiment: in vivo. To be noted: 30 mg/kg ip, read-out: Max % decrease in blood pressure, 30 mg/kg ip in RHR. As for the experimental part:
Thus, for example, compounds of formula I when administered intraperitoneally or orally to 2 kidney, 1-clip Goldblatt (renal) hypertensive rats (See S Sen, et al., "Role of Renin-Angiotensin System in Chronic Renal Hypertensive Rats," Hypertension 1:427-434 (1979) and Clin. Soc. 57:53-62, 1979, "Antihypertensive Effect of Prolonged Blockade of Angiotensin Formation in Benign and Malignant, one-and two-kidney Goldblatt Hypertensive Rats".) at doses in the range of 1-100 mg/kg cause 10-80 mmHg drops in blood pressure. […] Angiotensin binding inhibition activity and blood pressure lowering activity in renal hypertensive rats of the optimally substituted examples of formula I are listed in Table 1. Blood pressure lowering activity in spontaneously hypertensive rats of optimally substituted examples of formula II are listed in Table 2.
[…] EVALUATION (AHP3)
A Method for the Direct Monitoring of Aortic Blood Pressure and Heart Rate from Conscious Rats
The continuous monitoring of pulsatile blood pressure (BP) from unrestrained conscious rats surgically equipped with polyethylene cannulas was accomplished by means of a computer assisted data capture scheme (CADCS). The basic elements of the methodology are the cannulation procedure and the CADCS.
Rats were anesthetized with Telazol (1:1 tiletamine HCl and zolazepam HCl); 20-40 mg/kg IM and the descending aorta exposed via a midline incision. Cannulas fabricated from polyethylene tubing were inserted into the aorta via an undersized puncture hole below the renal arteries. The puncture hole was made by a 23 G disposable needle with a section of the aorta clamped off above and below the puncture site. The cannulas, consisting of a PE100 (0.86 mm ID) body and a PE50 (0.58 mm ID) tip, were attached to a trocar, inserted through the psoas muscle, and passed subcutaneously along the midline of the back and externalized between the ears. The cannulas were anchored to the psoas muscle and between the scalulae (3-0 green braided suture). The midline incision was closed in two steps (muscle first, skin second) using continuous over-and-over sutures (4-0 chronic). Each rat was then given penicillin 30,000 units subcutaneously (Penicillin G Procaine Sterile Suspension).
The rats were fitted with a harness-springswivel assembly designed to protect the cannula and to provide the rat relative freedom of movement. The harnesses were fabricated from nylon hook and loop tape cemented to a metal plate to which spring wires (18-8 stainless steel), were attached to brass swivels. Each polyethylene cannula was channeled through a spring and connected through a swivel to a pressure transducer (Model P23Gb; Statham Instruments; Hato Rey, Puerto Rico) and an infusion pump (Sage model 234-7; Orion Research, Cambridge, Mass.) by means of PE100 tubing. While on test, each rat received a continuous slow infusion of heparinized saline solution (approximately 0.40 ml or 40 units of heparin per 24 hr period) to prevent clot formation. Additional "flushes" of the cannula with heparinized saline were carried out when the aortic pulse pressure (systolic minus diastolic) was less than 25 mm Hg.
The pulsatile blood pressure of each of 32 rats was monitored continuously by two signal conditioning units (Gould, Clev., Ohio). The signals from these units were monitored and digital data for mean, systolic, and diastolic blood pressures as well as for heart rate were calculated every 5 min by two in-laboratory computers (Hewlett Packard, Cupertino, Calif.). These in-laboratory computers have the capacity to store 32 days of this 5 min data. Communication with the mainframe research computer (IBM 3083) from the two inlaboratory computers allowed for data analysis and report generation. […]

The target of experiment [2] is angiotensin II binding to rat adrenal receptor preparations. The experiment in a line: inhibition of 125I-angiotensin II binding to rat adrenal receptor preparations.

In the case of `O=C(O)[C@@H]1Cc2c(ncn2Cc2ccccc2)CN1C(=O)C(c1ccc(F)cc1)c1ccc(F)cc1` [Example 23, (S)-5-[bis(4-fluorophenyl)acetyl]-4,5,6,7-tetrahydro-1-(phenylmethyl)-1H-imidazo[4,5-c]pyridine-6-carboxylic acid], in experiment [1], the change in vivo at 30 mg/kg is -22%. The IC50 (commonly the concentration needed to halve the response being measured) in experiment [2] stood at 2.1 µM.
On to `COc1ccc(Cn2cnc3c2C[C@@H](C(=O)O)N(C(=O)C(c2ccccc2)C2CCCC2)C3)cc1C` (stereo partly drawn) [Example 24, (S)-5-(cyclopentylphenylacetyl)-4,5,6,7-tetrahydro-1-[(4-methoxy-3-methylphenyl)methyl]-1H-imidazo-[4,5-c]pyridine-6-carboxylic acid], for which the change in vivo at 30 mg/kg in experiment [1] is -16%. For the same compound, the IC50 in experiment [2] was 0.07 µM.
The matching figures for `COc1ccc(Cn2cnc3c2C[C@@H](C(=O)O)N(C(=O)CC2CCCCC2)C3)cc1C` [Example 26, (S)-5-(cyclohexylacetyl)-4,5,6,7-tetrahydro-1-[(4-methoxy-3-methylphenyl)methyl]-1H-imidazo-[4,5-c]-pyridine-6-carboxylic acid]: -18% and 2 µM.
The matching figures for `Cc1cccc(Cn2cnc3c2C[C@@H](C(=O)O)N(C(=O)C(c2ccccc2)c2ccccc2)C3)c1` [Example 75, 1H-Imidazo[4,5-c]pyridine-6-carboxylic acid, 5-(diphenylacetyl)-4,5,6,7-tetrahydro-1-[(3-methylphenyl)methyl]-, (S)-]: -30% and 0.27 µM.
As for `O=C(O)C1Cc2c(ncn2Cc2ccccc2)CN1C(=O)C(c1ccccc1)c1ccccc1` (stereo not shown) [Example 169, 5-(Diphenylacetyl)-4,5,6,7-tetrahydro-1-(phenylmethyl)-1H-imidazo[4,5-c]pyridine-6-carboxylic acid], the change in vivo at 30 mg/kg in experiment [1] was -20%. In experiment [2], this compound had a 50% inhibitory concentration (IC50) of 1 µM.
